From patent US11173146B2, “Selective activators of the intermediate conductance CA2+activated K+ channel KCa3.1 and their methods of use” (The Regents of the University of California, priority 2014, dated 2021) come the findings set out here.

As a reminder, the EC50 is the concentration needed to bring the measured effect to its halfway point. In general, inhibition refers to the share of the control response that was lost under treatment. Read a low inhibition as little suppression.

One test addresses T1, human KCa2.3 (Homo sapiens, UniProt Q9UGI6).
T1 construct: The cloning of hKCa2.3 (19 CAG repeats) and hKCa3.1 has been previously described (Wulff et al., 2000)
The experiment in a line: Manual whole-cell patch-clamp KCa2.3 activation (COS-7). Format: cell-based. The source says: Cells, Cell lines and Clones. […] The cloning of hKCa2.3 (19 CAG repeats) and hKCa3.1 has been previously described (Wulff et al., 2000). The hKCa2.3 clone was later stably expressed in COS-7 cells at Aurora Biosciences Corp., San Diego, Calif. Cell lines stably expressing other mammalian ion channels were gifts from several sources: hKCa1.1 in HEK-293 cells (Andrew Tinker, University College London); hKV2.1 in HEK293 cells (James Trimmer, UC Davis); KV11.1 (HERG) in HEK-293 cells (Craig January, University of Wisconsin, Madison); hNaV1.4 in HEK-293 cells (Frank Lehmann-Horn, University of Ulm, Germany), hNaV1.5 in HEK-293 cells (Christopher Lossin, University of California Davis), and hCaV1.2 in HEK-293 cells (Franz Hofmann, Munich, Germany).
Electrophysiology. Experiments were conducted either manually with an EPC-10 amplifier (HEKA, Lambrecht/Pfalz, Germany) or on a QPatch-16 automated electrophysiology platform (Sophion Biosciences, Denmark). […] Patch pipettes were pulled from soda lime glass (micro-hematocrit tubes, Kimble Chase, Rochester, N.Y.) and had resistances of 2-3 MΩ. […] Free Ca^2+ concentrations were calculated with MaxChelator assuming a temperature of 25° C., a pH of 7.2 and an ionic strength of 160 mM. […] Na^+ aspartate Ringer was used as an external solution (in mM): 160 Na^+ aspartate, 4.5 KCl, 2 CaCl2, 1 MgCl2, 5 HEPES, pH 7.4, 290-310 mOsm. […] Reduction of both peak and tail current by the drug was determined. NaV1.7 currents were recorded with 30 ms pulses from −90 mV to −10 mV every 10 sec with a CsF-based pipette solution and normal Ringer as an external solution. CaV1.2 currents were elicited by 100-ms depolarizing pulses from −80 to 20 mV every 10 sec with a CsCl-based pipette solution and an external solution containing 30 mM BaCl2. Blockade of both Na^+ and Ca^2+ currents was determined as reduction of the current minimum.
For all electrophysiology experiments solutions of benzothiazoles and benzooxazoles were always freshly prepared from 1 mM or 10 mM stock solutions in DMSO during the experiment. The final DMSO concentration never exceeded 1%. For automated assays glass vial inserts (Sophion Biosciences, Denmark) were filled with 350-400 μL of compound solution and placed into the glass insert base plate for use in the QPatch assay right before starting the QPatch.
The compounds synthesized by these methods as well as five commercially available compounds were tested for their KCa2.3 and KCa3.1 activating activity using either manual or automated whole-cell patch-clamp. Our group previously described the establishment of a QPatch assay for KCa3.1 modulators. […] We here made use of this assay and determined EC50 values for KCa3.1 activation using HEK-293 cells stably expressing human KCa3.1. Activities on human KCa2.3 were determined by manual electrophysioiogy since we currently only have KCa2.3 available in COS-7 cells, which are difficult to handle on the QPatch.

For another test, the target named is T2, hKCa1.1 (Homo sapiens, UniProt Q12791).
T2 construct: host or cells: HEK-293
The experiment in a line: KCa1.1 current modulation (QPatch). Format: cell-based. Background: The patch-clamp technique gives a direct electrical read-out from membranes.

The next test concerns the target T3, hNaV1.5 (Homo sapiens, UniProt Q14524).
T3 construct: host or cells: HEK-293
The experiment in a line: NaV1.5 current inhibition (HEK-293). Format: cell-based. The conditions noted are these: HEK293.

For another test, the target named is T4, hNaV1.7 (Homo sapiens, UniProt Q15858).
T4 construct: host or cells: CHO (division arrested)
T4 sequence (Q15858 whole entry): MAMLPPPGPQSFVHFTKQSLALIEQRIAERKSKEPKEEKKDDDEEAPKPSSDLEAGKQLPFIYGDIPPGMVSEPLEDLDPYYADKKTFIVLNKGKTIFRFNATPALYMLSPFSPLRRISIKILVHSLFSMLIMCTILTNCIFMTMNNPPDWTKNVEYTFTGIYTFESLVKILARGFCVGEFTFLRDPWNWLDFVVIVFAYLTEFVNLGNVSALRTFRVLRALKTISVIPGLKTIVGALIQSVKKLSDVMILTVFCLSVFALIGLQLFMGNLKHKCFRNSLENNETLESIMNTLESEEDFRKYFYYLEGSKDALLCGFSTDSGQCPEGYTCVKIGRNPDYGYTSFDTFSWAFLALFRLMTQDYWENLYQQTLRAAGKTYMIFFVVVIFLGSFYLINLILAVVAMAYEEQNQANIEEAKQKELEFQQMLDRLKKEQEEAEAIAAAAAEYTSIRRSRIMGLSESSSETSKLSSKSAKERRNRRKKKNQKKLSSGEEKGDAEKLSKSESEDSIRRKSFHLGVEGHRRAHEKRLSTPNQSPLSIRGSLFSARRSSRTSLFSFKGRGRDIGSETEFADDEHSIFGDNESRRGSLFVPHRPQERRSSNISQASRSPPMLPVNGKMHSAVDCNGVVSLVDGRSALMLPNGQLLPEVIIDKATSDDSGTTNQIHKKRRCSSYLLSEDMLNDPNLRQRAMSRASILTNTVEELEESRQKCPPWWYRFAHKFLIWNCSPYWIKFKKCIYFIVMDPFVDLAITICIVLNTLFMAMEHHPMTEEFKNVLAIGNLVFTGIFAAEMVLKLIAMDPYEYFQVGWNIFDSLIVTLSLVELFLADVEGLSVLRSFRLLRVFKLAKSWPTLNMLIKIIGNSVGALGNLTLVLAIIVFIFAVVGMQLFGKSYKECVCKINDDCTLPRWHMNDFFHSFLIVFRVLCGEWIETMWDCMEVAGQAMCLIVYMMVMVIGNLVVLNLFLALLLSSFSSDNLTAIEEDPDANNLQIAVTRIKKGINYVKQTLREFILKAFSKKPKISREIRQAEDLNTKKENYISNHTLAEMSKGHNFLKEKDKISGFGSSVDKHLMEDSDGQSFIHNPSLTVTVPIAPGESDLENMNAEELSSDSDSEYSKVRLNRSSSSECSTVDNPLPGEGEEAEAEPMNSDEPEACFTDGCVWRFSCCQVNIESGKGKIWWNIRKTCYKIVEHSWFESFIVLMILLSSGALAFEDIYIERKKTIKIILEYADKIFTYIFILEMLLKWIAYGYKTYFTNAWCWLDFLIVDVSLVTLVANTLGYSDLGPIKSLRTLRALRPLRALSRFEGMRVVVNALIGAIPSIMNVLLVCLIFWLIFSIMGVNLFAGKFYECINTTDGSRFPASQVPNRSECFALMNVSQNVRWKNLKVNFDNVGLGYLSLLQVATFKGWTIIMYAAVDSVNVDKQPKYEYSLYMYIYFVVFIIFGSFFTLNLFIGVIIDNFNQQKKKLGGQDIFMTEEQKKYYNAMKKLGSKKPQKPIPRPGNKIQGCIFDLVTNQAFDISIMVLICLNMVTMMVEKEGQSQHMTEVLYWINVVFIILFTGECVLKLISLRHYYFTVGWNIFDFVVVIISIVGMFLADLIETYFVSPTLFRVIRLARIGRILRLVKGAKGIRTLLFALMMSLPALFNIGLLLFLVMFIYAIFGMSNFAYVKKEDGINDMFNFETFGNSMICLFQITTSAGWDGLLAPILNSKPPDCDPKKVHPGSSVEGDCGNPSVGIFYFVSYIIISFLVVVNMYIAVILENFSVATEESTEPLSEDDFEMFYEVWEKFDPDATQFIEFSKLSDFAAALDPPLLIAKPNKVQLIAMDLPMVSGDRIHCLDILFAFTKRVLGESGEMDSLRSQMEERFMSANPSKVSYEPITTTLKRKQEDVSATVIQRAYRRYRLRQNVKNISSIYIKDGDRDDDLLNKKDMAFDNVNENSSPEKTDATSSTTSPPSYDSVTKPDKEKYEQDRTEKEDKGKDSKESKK
The experiment in a line: NaV1.7 current inhibition (CHO cells). Format: cell-based.

The target in a further test is T5, hCaV1.2 (Homo sapiens, UniProt Q13936).
T5 construct: host or cells: HEK-293
The experiment in a line: CaV1.2 current inhibition (HEK-293). The conditions noted are these: HEK293. Format: cell-based.

The subject of test [1] is porcine coronary arteries. The experiment in a line: Isometric myography on porcine coronary arteries, bradykinin-induced EDH-type relaxation. To be noted: compound 1 μM; for BK (1 μM)-induced relaxation potentiated to: U46619-precontracted, L-NNA and indomethacin.
From the text: Isometric Myography on Porcine Coronary Arteries (PCA). PCA were carefully dissected from hearts kindly provided by the local abattoir (Mercazaragoza, Zaragoza, Spain), cleaned of fat and connective tissue, and cut into 3-4 mm rings. Rings were mounted on hooks connected to an isometric force transducer (Pioden UF1, Graham Bell House, Canterbury, UK) and were pre-stretched to an initial tension of 1 g. […] Changes in tension were registered using a Mac Lab System/8e program (AD Instruments Inc., Milford, Mass.). The buffer contained the NO-synthase blocker, Nω-nitro-L-arginine (L-NNA, 300 μM), and the cyclooxygenase blocker indomethacin (10 μM) in order to measure EDH-type relaxation. […] After washout, rings were contracted with a high KCl buffer (60 mM) to determine maximal contraction. […] UCL1684 and U46619 were purchased from Tocris (Wiesbaden-Nordenstadt, Germany). Data analysis: EDH-type relaxations were determined as % change of U46619 contraction and are shown relative to the totally relaxed state (w/o U46619).

Where two headings read alike, the source gives them in different places.

T1 sequence (Q9UGI6 with tags, fused parts or gaps DUP76-80): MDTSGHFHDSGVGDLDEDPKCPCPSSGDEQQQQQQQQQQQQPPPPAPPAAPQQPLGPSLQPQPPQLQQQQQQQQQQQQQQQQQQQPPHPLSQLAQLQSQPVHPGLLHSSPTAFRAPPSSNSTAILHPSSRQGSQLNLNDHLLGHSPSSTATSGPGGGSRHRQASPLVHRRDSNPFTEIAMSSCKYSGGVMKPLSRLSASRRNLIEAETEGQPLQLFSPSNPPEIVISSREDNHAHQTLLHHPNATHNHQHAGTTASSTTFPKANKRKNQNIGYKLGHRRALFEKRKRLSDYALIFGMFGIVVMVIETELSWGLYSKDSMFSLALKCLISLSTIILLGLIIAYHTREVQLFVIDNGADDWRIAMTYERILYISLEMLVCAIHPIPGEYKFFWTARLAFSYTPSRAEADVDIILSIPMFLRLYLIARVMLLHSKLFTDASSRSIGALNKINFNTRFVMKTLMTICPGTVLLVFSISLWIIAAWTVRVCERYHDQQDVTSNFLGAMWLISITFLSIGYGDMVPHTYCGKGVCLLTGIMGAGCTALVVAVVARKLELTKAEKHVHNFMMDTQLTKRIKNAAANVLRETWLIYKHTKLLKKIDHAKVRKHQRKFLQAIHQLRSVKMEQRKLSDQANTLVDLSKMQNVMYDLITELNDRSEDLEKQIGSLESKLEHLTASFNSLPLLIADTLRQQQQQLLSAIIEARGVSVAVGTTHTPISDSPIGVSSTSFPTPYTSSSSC
T3 sequence (Q14524 whole entry): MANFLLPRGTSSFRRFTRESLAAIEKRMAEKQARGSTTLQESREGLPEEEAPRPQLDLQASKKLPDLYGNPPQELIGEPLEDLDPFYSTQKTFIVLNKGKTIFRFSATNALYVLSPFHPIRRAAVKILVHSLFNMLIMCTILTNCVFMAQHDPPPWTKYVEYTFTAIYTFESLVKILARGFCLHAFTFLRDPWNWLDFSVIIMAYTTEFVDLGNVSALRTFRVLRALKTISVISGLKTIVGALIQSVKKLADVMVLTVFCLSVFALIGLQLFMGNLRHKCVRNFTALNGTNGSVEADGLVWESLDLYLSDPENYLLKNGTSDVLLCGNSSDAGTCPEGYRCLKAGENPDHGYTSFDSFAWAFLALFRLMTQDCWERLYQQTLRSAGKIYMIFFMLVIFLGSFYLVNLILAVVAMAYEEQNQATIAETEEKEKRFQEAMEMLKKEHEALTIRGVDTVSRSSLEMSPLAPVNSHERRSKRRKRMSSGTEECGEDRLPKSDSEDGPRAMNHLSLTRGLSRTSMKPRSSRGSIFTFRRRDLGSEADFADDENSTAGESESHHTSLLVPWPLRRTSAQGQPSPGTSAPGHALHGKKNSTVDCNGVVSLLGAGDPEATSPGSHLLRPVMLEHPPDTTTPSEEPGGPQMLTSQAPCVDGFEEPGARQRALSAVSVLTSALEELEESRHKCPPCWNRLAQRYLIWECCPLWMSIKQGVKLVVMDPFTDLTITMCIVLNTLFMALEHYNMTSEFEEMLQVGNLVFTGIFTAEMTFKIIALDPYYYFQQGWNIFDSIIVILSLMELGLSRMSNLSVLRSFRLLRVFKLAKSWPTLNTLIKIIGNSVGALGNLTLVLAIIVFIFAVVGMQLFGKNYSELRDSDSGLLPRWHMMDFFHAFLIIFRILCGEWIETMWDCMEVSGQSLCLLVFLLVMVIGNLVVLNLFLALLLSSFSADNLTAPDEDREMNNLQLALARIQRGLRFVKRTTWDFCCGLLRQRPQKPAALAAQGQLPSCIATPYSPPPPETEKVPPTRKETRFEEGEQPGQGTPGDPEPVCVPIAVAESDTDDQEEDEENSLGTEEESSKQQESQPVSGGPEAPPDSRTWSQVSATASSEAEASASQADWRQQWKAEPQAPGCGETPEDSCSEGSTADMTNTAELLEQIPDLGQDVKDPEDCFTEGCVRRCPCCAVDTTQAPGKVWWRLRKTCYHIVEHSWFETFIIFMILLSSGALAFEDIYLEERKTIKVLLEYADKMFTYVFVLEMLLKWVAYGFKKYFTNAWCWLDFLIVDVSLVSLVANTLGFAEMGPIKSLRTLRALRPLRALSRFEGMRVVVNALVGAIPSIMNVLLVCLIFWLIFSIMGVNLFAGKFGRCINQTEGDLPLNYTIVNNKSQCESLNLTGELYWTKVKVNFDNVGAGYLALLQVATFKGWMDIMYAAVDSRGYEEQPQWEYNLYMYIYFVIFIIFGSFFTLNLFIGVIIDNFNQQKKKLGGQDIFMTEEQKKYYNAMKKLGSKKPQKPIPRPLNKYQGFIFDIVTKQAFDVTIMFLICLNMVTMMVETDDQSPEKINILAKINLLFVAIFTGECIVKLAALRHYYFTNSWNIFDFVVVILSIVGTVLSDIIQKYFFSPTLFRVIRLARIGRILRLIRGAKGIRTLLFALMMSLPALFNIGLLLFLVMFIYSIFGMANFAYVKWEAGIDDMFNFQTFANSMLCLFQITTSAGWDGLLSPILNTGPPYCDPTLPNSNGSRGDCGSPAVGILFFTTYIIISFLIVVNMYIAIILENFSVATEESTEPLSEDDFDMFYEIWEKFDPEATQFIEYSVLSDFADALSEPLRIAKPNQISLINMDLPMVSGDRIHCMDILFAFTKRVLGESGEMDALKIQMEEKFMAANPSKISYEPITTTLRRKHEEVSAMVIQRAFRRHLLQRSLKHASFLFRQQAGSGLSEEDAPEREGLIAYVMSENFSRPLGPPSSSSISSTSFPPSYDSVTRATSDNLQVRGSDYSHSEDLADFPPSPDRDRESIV

Turning to `Cc1cc2sc(N)nc2c2ccccc12` [SKA-111, 5-methylnaphtho[1,2-d]thiazol-2-amine], the EC50 at human KCa2.3 (read-out: EC50 for KCa2.3 activation; 250 nM free Ca2+) was 13.7 ± 6.9 µM. Moreover, the “KCa1.1 % of current” value on hKCa1.1 (at 25 μM) is 120% of current at 25 μM (3). Further, the inhibition at 25 µM against hNaV1.5 (at 25 μM) worked out at 39.9 ± 11.1%; against hNaV1.7 (at 25 μM) it was 27.5 ± 0.9%; against hCaV1.2 (at 25 μM), 49.5 ± 17%. The “bradykinin-induced EDH-type relaxation” value in test [1] was “increased”. Further, the “BK (1 μM)-induced relaxation potentiated to” value in test [1] is reported as “≈ 200%”.
For `Cc1cc2nc(N)oc2c2ccccc12` [SKA-121, 5-Methylnaphtho[2,1-d]oxazol-2-amine], the EC50 was 4.4 ± 2.3 µM at human KCa2.3 (250 nM free Ca2+; read-out: EC50 for KCa2.3 activation) and 4.4 ± 2.6 µM on human KCa2.3 (Table 1; 250 nM free Ca2+; read-out: KCa2.3 EC50). Further, the “Hill coefficient nH, KCa2.3 concentration-response curve” value on human KCa2.3 (FIG. 4 legend) is 1.6. Further, the “KCa1.1 % of current” value on hKCa1.1 (at 50 μM) is 115% of current at 50 μM (3). The inhibition at 50 µM worked out at 32.1 ± 11.1% on hNaV1.5 (at 50 μM), 28.5 ± 1.8% against hNaV1.7 (at 50 μM) and 48.9 ± 2.7% at hCaV1.2 (at 50 μM). Also, in test [1], the “bradykinin-induced EDH-type relaxation” value is “increased”. The “BK (1 μM)-induced relaxation potentiated to” value in test [1] is listed as “≈ 300%”.
